Laboratory results published in patent US6025387A, “Gastroprotective flavone/flavanone compounds with therapeutic effect on inflammatory bowel disease” (Dong a Pharmaceutical Co., Ltd., priority 1996, dated 2000).
In brackets after ≈: the same amount, converted by molar mass.

How the values were obtained:
[1] = tested on: gastric ulcer induced by NSAIDs; conditions: clinical; cited from earlier work
gastric mucosa = conditions: U.S. Pat. No. 5,399,584; cited from earlier work
gastric mucus secretion = experiment: Measurement of gastric mucus; assay type: in vivo, SD male rat; conditions: oral, rat
Protocol: Measurement of Gastric Mucus
The compound was orally administered into SD male rat (200~250 g). After 1 hour the stomach was extracted. The extracted stomach was immediately washed with 10 mL of cold 0.25M sucrose solution. The gastric mucosa was dyed with 0.1% alcian blue solution for 2 hours. After dyeing, the gastric mucosa was washed with 0.25M sucrose solution twice for 15 minutes and for 45 minutes. The dyed gastric mucosa was treated with 10 mL of 30% dioctyl sodium sulfosuccinate solution for 2 hours to extract dyed mucus completely and optical density of aqueous phase was measured spectrophotometrically at 655 nm. The amount of mucus in the gastric mucosa was shown as the amount of alcian blue after calibration (Kitagawa, H., et al., Drug Res. 1986, 36: 1240-1244).

[2] = tested on: gastric mucosal damage induced by ethanolic HCl; experiment: Gastritis model induced with ethanolic-HCl; assay type: in vivo, SD male rat; conditions: po, 1 h, rat; for inhibition in vivo at 0.3 mg/kg: 0.3 mg/kg p.o.; for inhibition in vivo at 1 mg/kg: 1 mg/kg p.o.; for inhibition in vivo at 3 mg/kg: 3 mg/kg p.o.
Protocol: Effect on the Gastritis Model Induced with Ethanolic-HCl.
SD male rat(250-350 g) was fasted for 24 hours. The compound was orally administered in suspension of 5% HPMC, and after 1 hour 1.5 mL of 150 mM HCl-80% ethanol was orally administered. After 1 hour the rat was sacrifieced and the stomach was extracted and the ulcer index was measured. The ulcer index was shown by the area of hemorrhage lesion(Mizui, T, et al., Jpn. J. Pharmacol. 1983, 33: 939).

neutrophils = experiment: Luminol-dependent chemiluminescence of neutrophils induced by FMLP; assay type: cell-based; conditions: Neutrophil, 1 μM FMLP, 0.07 mM luminol; read-out: IC50, inhibition of chemiluminescence generated by neutrophil activation
Protocol: Measurement of luminol-dependent chemiluminescencei iof neutrophil induced by FMLP.
20 mL of 12% sodium caseinate-0.9% saline was administered intraperitoneally (Newsby, A. C., Biochem. J., 1980, 186: 907,. After 20 hours, the intraperitoneal exudate was extracted under ether anesthesia. The exudate was centrifuged, and erythrocytes were removed by hypotonic lysis, and then neutrophil was washed. Neutrophil was ascertained by Wright's dyeing method, and viability was measured by Trypan blue exclusion test. Chemiluminescence was measured by Topcount (Packard Co.). The suspension of 1.5×10^6 of granulocytes, 1 μM of FMLP, 0.07 mM of luminol and the compound in HBSS was used (Dahlgren, C., et al., Infect. Immun., 1985 47: 326-328).
**IC50 (μg/mL): Concentration of the compound at inhibiting
chemiluminescence generated by neutrophil activation to 50%

cyclooxygenase [3] = experiment: Cyclooxygenase activity in HUVEC (PGF1 α synthesis); assay type: cell-based
Protocol: (§1) Measurment of Cyclooxygenase Actvity
(§2) After addition of the compound to cultured HUVEC, the HUVEC was incubated at 37° C., for 30 minutes, then arachidonic acid (final concentration: 30 .rho.M) was added, and the HUVEC was additionally incubated at 37° C. for 15 minutes. The culture medium was taken, and the activity of cyclooxygenase for 6-Keto-PGF1 α or PGE2 was measured by radioimmunoassay (Mitchell, J. A., et al., Pro. Natl. Acad. Sci. USA 1994, 90: 11693-11697).
**SC200 (ug/mL) : Concentration at increasing generation of […]

cyclooxygenase [4] = experiment: Cyclooxygenase activity in HUVEC (PGE2 synthesis); assay type: cell-based
Protocol: as §1, §2
**SC200 (μg/mL) : Concentration at increasing generation of […]

5-lipoxygenase = target: T1, 5-lipoxygenase (Rattus norvegicus, UniProt P12527); experiment: 5-lipoxygenase activity (LTB4 in A23187-stimulated peritoneal neutrophils); assay type: cell-based
T1 construct: endogenous in cells; host or cells: casein-elicited rat peritoneal neutrophils
T1 sequence (P12527 1-673): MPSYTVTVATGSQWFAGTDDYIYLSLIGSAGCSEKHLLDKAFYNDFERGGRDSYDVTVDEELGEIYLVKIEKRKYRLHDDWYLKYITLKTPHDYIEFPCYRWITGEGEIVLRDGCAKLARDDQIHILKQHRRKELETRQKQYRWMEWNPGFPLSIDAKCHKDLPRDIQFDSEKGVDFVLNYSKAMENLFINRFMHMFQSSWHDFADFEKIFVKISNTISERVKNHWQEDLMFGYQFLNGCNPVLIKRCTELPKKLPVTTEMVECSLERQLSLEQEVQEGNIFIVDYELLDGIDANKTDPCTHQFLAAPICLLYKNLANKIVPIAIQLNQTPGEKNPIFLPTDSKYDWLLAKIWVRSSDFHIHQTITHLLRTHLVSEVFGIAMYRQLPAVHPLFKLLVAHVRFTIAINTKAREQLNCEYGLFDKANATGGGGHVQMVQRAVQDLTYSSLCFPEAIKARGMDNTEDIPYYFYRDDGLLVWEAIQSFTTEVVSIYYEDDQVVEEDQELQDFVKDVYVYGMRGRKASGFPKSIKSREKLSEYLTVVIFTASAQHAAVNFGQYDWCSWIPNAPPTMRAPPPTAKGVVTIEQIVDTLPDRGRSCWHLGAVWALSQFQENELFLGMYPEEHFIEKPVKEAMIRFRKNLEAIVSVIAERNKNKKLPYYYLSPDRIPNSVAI
Protocol: Measurement of 5-lipooxygenase Activity
Modified Safayhi et al.'s method (Safayhi, H., et al., Biochem. Pharmacol. 1985, 34: 2691) was used to this experiment. Peritoneal neutrophil was separated from the rat which was treated with casein solution. The compound was added to 10^7 cells (5×10^6 cells/mL, 2 mL) of neutrophil after 2 minutes Ca^2+ -ionophore, A23187 (1 μg/mL) was added and the mixture was incubared at 37° C. for 10 minutes. The reaction mixture was centrifuged and the supermatant was taken up. The amount of LTB4 in the supermatant was measured by radioimmunoassay.

experimental ulceration = conditions: various kinds of ulcerogens; cited from earlier work
leukocytes = conditions: cited from earlier work
[5] = tested on: epidermal cells of mucous membrane in gastrointestinal tracts; conditions: cited from earlier work
[6] = tested on: gastric mucosal damage induced by NSAIDs; conditions: NSAID-induced; cited from earlier work
[7] = tested on: gastritis and gastric ulcer; conditions: in vivo; cited from earlier work

For `CCCCC(C)(O)C/C=C/[C@H]1[C@H](O)CC(=O)[C@@H]1CCCCCCC(=O)OC` (mixture of isomers) [misoprostol], the “prevention of NSAID-induced gastric ulcer” value [1] is listed as “prevented the gastric ulcer induced by NSAIDs”.
For `COc1cccc2oc(-c3ccc(F)cc3)cc(=O)c12` [4'-fluoro-5-methoxy flavone], the “protective effect on damage of gastric mucosa” value (gastric mucosa) is given as “protective effect on the damage of gastric mucosa”.
For `COc1ccc(-c2cc(=O)c3c(O)c(OC)c(O)cc3o2)cc1OC` [5,7-dihydroxy-3',4',6-trimethoxy flavone], the “gastric mucus secretion, % Control” value (gastric mucus secretion; 0.3 mg/kg) was 132.2 % Control, the “gastric mucus secretion, % Control” value (gastric mucus secretion; 3 mg/kg) was 130.7 % Control and the “gastric mucus secretion, % Control” value (gastric mucus secretion; 30 mg/kg) was 116.8 % Control. The inhibition in vivo at 0.3 mg/kg [2] was 58%, the inhibition in vivo at 1 mg/kg [2] was 64% and the inhibition in vivo at 3 mg/kg [2] was 80%. The IC50 (neutrophils) was 0.463 µg/mL (≈ 1.34 µM), the “SC200, concentration increasing generation of PGF1α to 200%” value (cyclooxygenase [3]) was 3.4 µg/mL and the “SC200, concentration increasing generation of PGE2 to 200%” value (cyclooxygenase [4]) was 2.4 µg/mL. The IC50 (5-lipoxygenase) was 13.1 µM.
With `COc1ccc(-c2cc(=O)c3c(OC)c(OC)c(OCC(=O)O)cc3o2)cc1OC` [7-carboxymethyloxy-3',4',5,6-tetramethoxy flavone] the “gastric mucus secretion, % Control” value (gastric mucus secretion; 0.3 mg/kg) was 120 % Control, the “gastric mucus secretion, % Control” value (gastric mucus secretion; 3 mg/kg) was 130 % Control and the “gastric mucus secretion, % Control” value (gastric mucus secretion; 30 mg/kg) was 139 % Control. The inhibition in vivo at 0.3 mg/kg [2] was 54%, the inhibition in vivo at 1 mg/kg [2] was 77% and the inhibition in vivo at 3 mg/kg [2] was 84%. For the same compound, the IC50 (neutrophils) was 1.57 µg/mL (≈ 3.77 µM), the “SC200, concentration increasing generation of PGF1α to 200%” value (cyclooxygenase [3]) was 11.09 µg/mL and the “SC200, concentration increasing generation of PGE2 to 200%” value (cyclooxygenase [4]) was 15.76 µg/mL. For the same compound, the IC50 (5-lipoxygenase) was 140 µM.
For `CCCCC[C@H](O)/C=C/[C@H]1[C@H](O)CC(=O)[C@@H]1C/C=C\CCCC(=O)O` [PGE2], the “prevention of experimental ulceration” value (experimental ulceration) is given as “effectively prevent the experimental ulceration”.
For `COc1ccc2c(c1)c(CC(=O)O)c(C)n2C(=O)c1ccc(Cl)cc1` [indomethacin], the “leukocyte adherence to vascular endothelium” value (leukocytes) is given as “induce adherence of leukocytes to the vascular endothelium”.
For `COc1ccc2[nH]c([S+]([O-])Cc3ncc(C)c(OC)c3C)nc2c1` (stereo not drawn) [omeprazole], the “effect of long-term administration to rats” value [5] is given as “caused dysplasia in epidermal cells of mucous membrane in gastrointestinal tracts”.
For catalase, the “reduction of gastric mucosal damage” value [6] is listed as “significantly reduce the extent of gastric mucosal damage induced by NSAIDs”.
For sucralfate, the frequency of recurrence [7] is given as “low frequency of recurrence”.
